Measurements: publication PMC8165744, “Identification of an Alternative Glycyrrhizin Metabolite Causing Liquorice-Induced Pseudohyperaldosteronism and the Development of ELISA System to Detect the Predictive Biomarker” (Frontiers in Pharmacology, 2021)
Read-outs that look alike come from different tables or passages of the source.

Columns and labels:
[1] = pharmacokinetics of GA metabolites in EHBRs orally treated with GA; type: in vivo, Eisai hyperbilirubinuria rats (EHBRs); settings: Eisai hyperbilirubinuria rat (EHBR), plasma, oral GA 200 mg/kg, 24 h after treatment, read-out: concentration in plasma sample
[2] = molecular target: T1, human OAT3 (Homo sapiens, UniProt Q8TCC7); experiment: uptake into HEK293 cells transfected with OAT3; type: in vitro ADME; settings: HEK293, EHBR plasma, 37°C, 15 min
T1 construct: expressed in transfected cells; host or cells: HEK293 cells, pCI-neo vector
T1 sequence (Q8TCC7 1-542): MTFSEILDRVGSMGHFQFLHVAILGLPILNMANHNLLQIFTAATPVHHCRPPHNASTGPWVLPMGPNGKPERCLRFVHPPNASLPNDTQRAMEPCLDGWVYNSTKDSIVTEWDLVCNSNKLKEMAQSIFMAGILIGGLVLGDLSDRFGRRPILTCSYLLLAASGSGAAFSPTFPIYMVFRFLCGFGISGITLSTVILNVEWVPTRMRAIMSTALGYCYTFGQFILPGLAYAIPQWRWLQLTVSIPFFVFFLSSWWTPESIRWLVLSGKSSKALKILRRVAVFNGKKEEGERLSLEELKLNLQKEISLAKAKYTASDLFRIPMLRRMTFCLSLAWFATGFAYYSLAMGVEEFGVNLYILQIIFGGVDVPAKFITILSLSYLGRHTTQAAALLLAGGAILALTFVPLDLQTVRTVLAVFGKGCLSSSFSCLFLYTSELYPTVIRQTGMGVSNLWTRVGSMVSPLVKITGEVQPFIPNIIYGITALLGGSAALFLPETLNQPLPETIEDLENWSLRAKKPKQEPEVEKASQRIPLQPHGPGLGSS
Source text: Uptake of Compound 4 by Rat Kidney Slices and Cells Expressing OAT1 and 3
For the uptake study of 4 into rat kidney slices, we used the samples obtained in our previous study ([Ishiuchi et al., 2019]). For the uptake study of 4 into the cells transiently expressing OAT1 and OAT3, we used the same protocol as in our previous study ([Makino et al., 2012]). cDNAs encoding human OAT1 and OAT3 inserted into pGH19 were generously supplied by Prof. Mitsuru Sugawara (Hokkaido University, Sapporo, Japan), and then subcloned into a pCI-neo mammalian expression vector (Promega, Madison, WI, United States). We used the same pooled plasma of male EHBRs orally treated with GA for 12 h used in our previous study ([Ishiuchi et al., 2019]).
FIGURE 2 Inhibitory effects of compound 4 on type-2 11β-hydroxysteroid dehydrogenase (11β-HSD2) using rat kidney microsome (A), and the uptake of 4 into rat kidney slices (B) or into HEK293 cells transfected with organic anion transporter (OAT) 1 (C) or OAT3 (D). […] Then, the amount of [^3H] cortisol was measured. […] Concentrations of 4 in kidney slice homogenates were measured using liquid chromatography-tandem mass spectrometry (LC-MS/MS). **p < 0.01 vs 4°C group using Student’s t-test (C) Male EHBRs were orally treated with GA (200 mg/kg) and their plasma samples were collected […] after treatment. […] Then, concentrations of 4 in cells were measured using LC-MS/MS. […]

[3] = molecular target: T2, rat type-2 11β-hydroxysteroid dehydrogenase (11β-HSD2) (Rattus norvegicus, UniProt P50233); experiment: in vitro 11β-HSD2 activity using rat kidney microsomes; type: biochemical; settings: rat kidney microsome fraction, 37°C, 30 min
T2 construct: from tissue; host or cells: rat kidney microsome fraction
T2 sequence (P50233 1-400): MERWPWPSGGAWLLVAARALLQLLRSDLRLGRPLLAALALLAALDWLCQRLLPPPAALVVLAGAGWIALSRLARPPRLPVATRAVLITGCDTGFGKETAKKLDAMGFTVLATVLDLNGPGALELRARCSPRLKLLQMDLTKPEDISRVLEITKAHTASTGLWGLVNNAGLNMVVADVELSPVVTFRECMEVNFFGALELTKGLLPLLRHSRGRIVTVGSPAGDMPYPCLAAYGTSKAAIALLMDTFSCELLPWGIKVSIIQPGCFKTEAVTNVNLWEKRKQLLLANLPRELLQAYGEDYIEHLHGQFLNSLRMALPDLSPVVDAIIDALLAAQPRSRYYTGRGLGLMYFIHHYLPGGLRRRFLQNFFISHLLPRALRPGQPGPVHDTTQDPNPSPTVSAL
Method: Determination of in vitro 11β-HSD2 Activity Using Rat Kidney Microsomes
Then, the amount of [^3H] cortisol was measured. […] Kidneys were collected from normal Sprague-Dawley (SD) rats and slices were incubated with plasma samples of female EHBRs at 37°C or 4°C for 2 h, and then homogenized. […] HEK293 cells transfected with OAT1 or OAT3 were incubated with 1:2 diluted plasma samples of male EHBRs at 37°C for 15 min. Then, concentrations of 4 in cells were measured using LC-MS/MS.

[4] = binding of compound 4 to albumin in pooled EHBR plasma (ultrafiltration); type: in vitro ADME, Eisai hyperbilirubinuria rats (EHBRs); settings: female, Eisai hyperbilirubinuria rat (EHBR), rat, 200 mg/kg; pooled plasma of EHBRs 12 h after oral GA
Method: (§1) Binding of Compound 4 to Albumin
(§2) We measured the binding ratios of 4 to albumin in pooled plasma of female EHBRs using the same protocol used in our previous study ([Ishiuchi et al., 2019]).
(§3) The pooled plasma samples collected from EHBRs 12 h after oral treatment with GA were loaded into ultracentrifuge filters with a 1 × 10^4 molecular weight cut-off and concentrated by centrifugation. The concentrations of 4 in the pooled plasma and the filtrate were 77 µM and undetectable, respectively. Based on the detection limits (3.2 nM) in the LC-MS/MS analysis, the albumin-binding ratios of 4 in the plasma was calculated to be more than 99.9%.

[5] = molecular target: T3, albumin (Rattus norvegicus, UniProt P02770); experiment: as above; type: in vitro ADME, Eisai hyperbilirubinuria rats (EHBRs)
T3 construct: from tissue; host or cells: pooled plasma of EHBRs orally treated with GA
T3 sequence (P02770 25-608): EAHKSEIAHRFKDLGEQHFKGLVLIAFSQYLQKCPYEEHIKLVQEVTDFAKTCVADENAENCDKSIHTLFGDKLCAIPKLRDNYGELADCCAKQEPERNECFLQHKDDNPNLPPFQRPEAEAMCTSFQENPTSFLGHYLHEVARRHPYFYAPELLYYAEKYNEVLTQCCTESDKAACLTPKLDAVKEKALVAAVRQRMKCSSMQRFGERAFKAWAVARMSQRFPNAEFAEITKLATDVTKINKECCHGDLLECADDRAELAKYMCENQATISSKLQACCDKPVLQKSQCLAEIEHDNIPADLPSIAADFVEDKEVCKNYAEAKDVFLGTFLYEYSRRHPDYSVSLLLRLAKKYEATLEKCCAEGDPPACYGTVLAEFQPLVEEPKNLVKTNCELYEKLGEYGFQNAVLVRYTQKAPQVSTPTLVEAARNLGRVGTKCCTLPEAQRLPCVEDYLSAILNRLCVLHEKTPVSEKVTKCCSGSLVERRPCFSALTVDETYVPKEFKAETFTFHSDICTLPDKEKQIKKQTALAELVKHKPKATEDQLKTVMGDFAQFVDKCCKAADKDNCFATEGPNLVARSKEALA
Method: as §1, §2, §3

With CC1(C)[C@@H](OS(=O)(=O)O)CC[C@]2(C)[C@H]3C(=O)C=C4[C@@H]5C[C@@](C)(C(=O)O[C@@H]6O[C@H](C(=O)O)[C@@H](O)[C@H](O)[C@H]6O)CC[C@]5(C)CC[C@@]4(C)[C@]3(C)CC[C@@H]12 [Compound 4, 18β-glycyrrhetyl-3-O-sulfate-30-O-glucuronide] the concentration at 24 h ([1]; female EHBRs) was 115 µM, the concentration at 24 h ([1]; male EHBRs) was 189 µM and the “uptake into cells expressing OAT3 vs mock cells” value [2] was “significantly higher”. The IC50 [3] was 380 nM, the concentration at 12 h [4] was 77 µM and the “albumin-binding ratio in plasma” value ([5]; pooled EHBR plasma, 1 × 10^4 MW cut-off filter, calculated from detection limit 3.2 nM) was “more than 99.9%”. The concentration in filtrate ([5]; ultracentrifuge filtrate of pooled EHBR plasma) was “undetectable”.
